Holding throughout (format): cell-based
Test [1] concerns MDA-MB-468 (human breast cancer cell). As to the kind of experiment: MTT inhibition of proliferation, MDA-MB-468. The settings on record: MDA-MB-468, MTT, 48 h, read-out: Inhibitory Activity on the Proliferation of Tumor Cells (IC50 ± SD) MDA-MB-468. Here is the method:
(§1) The compound 8 of the invention was prepared into required concentrations using a culture medium containing 0.1% DMSO.
(§2) The seven tumor cells including MCF-7 (human breast cancer cell, ATCC:HTB-22), SK-BR-3 (human breast cancer cell, ATCC:HTB-30), A549 (human non-small cell lung cancer cell, ATCC:CRM-CCL-185), HCT116 (human colon cancer cell, ATCC:CCL-247), U-118 MG (human astrocytoma, ATCC:HTB-15), U-87 MG (human astrocytoma, ATCC:HTB-14), MDA-MB-468 (human breast cancer cell, ATCC:HTB-132) were all purchased from American Type Culture Collection (ATCC). […]
(§3) MCF-7, SK-BR-3, A549, HCT 116, U-118 MG U-87 MG and MDA-MB-468 cells in logarithmic phase with excellent growth conditions were grafted into a 96-well plate according to a density of 1×10^4 cells/mL, wherein each well was grafted 100 μl. […] A supernate was absorbed out carefully, 150 μl DMSO was added into each hole to dissolve purple residue (formazan), flatly oscillated for 10 min to completely dissolve deposits, then O.D. value (absorbancy) was measured on a microplate reader, wherein the wavelength was 570 nm. […]
(§4) The test was repeated for thrice. A diagram was made by plotting the inhibition rate against the concentration of the compound, and the IC50 (half effective inhibitive concentration) value of the compound 8 of the invention was calculated. […]

For test [2], the system named is U-118 MG (human astrocytoma). Briefly: MTT inhibition of proliferation, U-118 MG. The conditions noted are these: 48 h, read-out: Inhibitory Activity on the Proliferation of Tumor Cells (IC50 ± SD) U-118 MG. The protocol:
as §1, §2, §3, §4

The test system of test [3] is U-87 MG (human astrocytoma). Briefly: MTT inhibition of proliferation, U-87 MG. The conditions noted are these: 48 h, read-out: Inhibitory Activity on the Proliferation of Tumor Cells (IC50 ± SD) U-87 MG. Here is the method: as §1, §2, §3, §4
For test [4], the system named is SK-BR-3 (human breast cancer cell). As to the kind of experiment: MTT inhibition of proliferation, SK-BR-3. The conditions noted are these: SK-BR-3, MTT, 48 h, read-out: Inhibitory Activity on the Proliferation of Tumor Cells (IC50 ± SD) SK-BR-3. The protocol: as §1, §2, §3, §4
In test [5] the test system is MCF-7 (human breast cancer cell). As to the kind of experiment: MTT inhibition of proliferation, MCF-7. The settings on record: MCF7, MCF-7, MTT, 48 h, read-out: Inhibitory Activity on the Proliferation of Tumor Cells (IC50 ± SD) MCF-7. Here is the method: as §1, §2, §3, §4
The test system of test [6] is A549 (human non-small cell lung cancer cell). As to the kind of experiment: MTT inhibition of proliferation, A549. The settings on record: 48 h, read-out: Inhibitory Activity on the Proliferation of Tumor Cells (IC50 ± SD) A549. The protocol:
as §1, §2, §3, §4

Test [7] concerns HCT116 (human colon cancer cell). As to the kind of experiment: MTT inhibition of proliferation, HCT 116. The conditions noted are these: HCT 116, MTT, 48 h, read-out: Inhibitory Activity on the Proliferation of Tumor Cells (IC50 ± SD) HCT 116. The protocol:
as §1, §2, §3, §4

Read-outs that look alike come from different tables or passages of the source.

For the compound `COc1cccc2c1C(=O)c1c(O)c3c(c(O)c1C2=O)C[C@@](O)(C(=O)CO)C[C@@H]3O[C@H]1C[C@H](N)[C@H](O)[C@H](C)O1` [ADR, Adriamycin amycin, reference compound], the IC50 in test [1] stood at 2.45 ± 0.31 µM; in test [2], 13.5 ± 1.75 µM; in test [3], 82.5 ± 7.15 µM; in test [4], 4.65 ± 0.02 µM.
Regarding `COc1cc2ncnc(Nc3ccc(NCc4ccc(F)cc4)cc3)c2cc1OCCN1CCCC1` [Compound 8, N-[(4-fluorophenyl)methyl]-4-N-{7-methoxy-6-[(2-pyrrolidin-1-yl)hydroxyethyl]quinazolin-4-yl}phen-1,4-diamine], the IC50 came out at 16.1 ± 3.47 µM in test [5]; 19.4 ± 1.33 µM in test [1] (Homo sapiens); 24.5 ± 2.68 µM in test [2] (Homo sapiens); 5.45 ± 0.61 µM in test [3] (Homo sapiens); 10.2 ± 0.86 µM in test [4] (Homo sapiens); 5.66 ± 1.01 µM in test [6]. The IC50 in test [7] was 2.9 ± 1.02 µM.

The record behind these values is patent US9624179B1, “Quinazoline derivative Lu1501 and preparing method and application thereof” (NANJING GENERAL HOSPITAL OF NANJING MILITARY REGION OF PLA, priority 2015, dated 2017).
